# Source: patent US8993721B2, “Peptides for targeting apoptotic cells and uses thereof” (Kyungpook National University Industry-Academic Cooperation …, priority 2008, dated 2015)
# Entries after “also recorded” stand apart in the source; their conditions may differ.
# How the values were obtained:
# [1] = system: etoposide-treated apoptotic A549 cells; test: Microscopic observation of binding of the peptide to apoptotic cells, A549 (Example 9-1); assay type: cell-based, human; conditions: Alexa594-annexin V
# Description: (§1) Cells were cultured in chamber slide (Nunc) and treated with 50 μM etoposide (Sigma) for 16 hours (A549 cells) or 50 ng/ml trail (R&D Systems) for 16 hours (MDA-MB231 cells) to induce apoptosis. The cells were cultured in RMPI-1640 medium (A549 cells) or DMEM-High (MDA-MB231 cells) containing antibiotics (penicillin and streptomycin) and 10% FBS. All the cells were sub-cultured every 3 or 4 days. The apoptosis-induced apoptotic cells were washed with PBS and blocked with 1% BSA at 37° C. for 30 minutes. Then, the cells were reacted with 10 μM of the peptide labeled with fluorescein, at 4° C. for 1 hour. After washing, the cells were reacted with an annexin V reaction buffer containing Alexa594-labeled annexin V (Invitrogen) at room temperature for 15 minutes. The cells were washed with PBS and then fixed with 4% paraformaldehyde for 5 minutes. After treatment with a mounting solution containing the DAPI nuclear stain, images of the cells were obtained under a fluorescence microscope.
# [2] = system: etoposide-treated apoptotic cells (A549, H460, HeLa, L132, RAW); test: Microscopic observation of binding of the peptide to apoptotic cells (Example 3-1); assay type: cell-based; conditions: 10 μM fluorescein-labeled peptide 4° C. 1 hour
# Description: Cells were cultured in chamber slide (Nalgene Nunc) and treated with 50 μM etoposide (Sigma) for a given period of time (A549 and HeLa cells: for 15 hours, H460 cells: 24 hours, L132 cells: 3 hours, RAW cells: 6 hours) to induce apoptosis. The cells were cultured in RMPI-1640 medium (A549 and H460 cells) or DMEM (HeLa, L132 and RAW cells) containing antibiotics (penicillin and streptomycin) and 10% FBS. All the cells were subcultured every 3 or 4 days. The apoptosis-induced apoptotic cells were washed with PBS and blocked with 1% BSA at 37° C. for 30 minutes. Then, the cells were reacted with 10 μM of the peptide labeled with fluorescein, at 4° C. for 1 hour. After washing, the cells were reacted with an annexin V reaction buffer containing Alexa594-labeled annexin V (Molecular Probes), at room temperature for 15 minutes. The cells were washed with PBS and then fixed with 4% paraformaldehyde for 5 minutes. Thereafter, after counterstaining using the nuclear stain 4′,6-diamidino-2-phenylindole (DAPI), followed by treatment with a mounting solution (Molecular Probes), images of the cells were obtained under a fluorescence microscope (Zeiss).
# [3] = system: apoptotic A549 cells; test: Competitive inhibition of binding to apoptotic cells by annexin V treatment (Example 9-2); assay type: cell-based, human; conditions: pre-treatment at 0, 500 and 1000 μM; high concentration
# Description: In order to further investigate the binding properties of the polypeptide of the present invention (ApoPep-2) to apoptotic cells, competitive inhibition by annexin V was measured. To this end, first, apoptotic A549 cells were pre-treated with annexin V, not labeled with fluorescence, at concentrations of 0, 500 and 1000 μM. Then, after reacting the cells with fluorescence-labeled annexin V under the same condition as described in Example <9-1>, the binding of the cells was observed under a fluorescence microscope.
# Further, apoptotic A549 cells were pre-treated with annexin V, not labeled with fluorescence, at a concentration of 1000 μM. Then, after reacting the cells with fluorescence-labeled peptide under the same condition as described in Example <9-1>, the binding of the cells was observed under a fluorescence microscope.
# [4] = system: etoposide-treated apoptotic A549 cells; test: FACS analysis of binding to apoptotic cells (Example 9-3); assay type: cell-based, human
# Description: As another way of confirming the binding of the polypeptide of the present invention (ApoPep-2) to apoptotic cells, apoptotic cells were treated with the peptide, labeled with fluorescein, and the binding was confirmed through FACS analysis. First, apoptosis was induced by treating A549 cells with 50 μM etoposide for 20 hours. The apoptotic cells or normal cells were reacted with ApoPep-2 (10 μM) or a control peptide at the same concentration, labeled with fluorescein, at 4° C. or 37° C. for 1 hour. Further, the cells were reacted with fluorescein-labeled annexin V at room temperature for 15 minutes. After washing cells with PBS, FACS analysis was performed using a FACS instrument (Becton Dickinson).
# [5] = system: etoposide-treated apoptotic A549 cells; test: FACS analysis of binding to apoptotic cells (Example 3-3); assay type: cell-based, human
# Description: As another way of confirming the binding of the peptide of the present invention to apoptotic cells, apoptotic cells were treated with the peptide of the present invention, labeled with fluorescein, and the binding was confirmed through FACS analysis. […] The apoptotic cells or normal cells were reacted with ApoPep-1 (5 μM), ApoPep-2 (10 μM) or a control peptide at the same concentrations, labeled with fluorescein, at 4° C. for 1 hour. Further, the cells were reacted with fluorescein-labeled annexin V at room temperature for 15 minutes. After staining the cells with propodium iodide (PI) simultaneously, followed by washing with PBS, FACS analysis was performed using a FACS instrument (Becton Dickinson).
# [6] = system: apoptotic A549 cells; test: Competitive inhibition of binding to apoptotic cells by annexin V treatment (Example 3-2); assay type: cell-based, human; conditions: pre-treatment at 0, 200 and 1000 μM; high concentration
# Description: In order to further investigate the binding properties of the peptide of the present invention (ApoPep-1) to apoptotic cells, competitive inhibition by annexin V was measured. To this end, first, apoptotic A549 cells were pre-treated with annexin V, not labeled with fluorescence, at concentrations of 0, 200 and […]. Then, after reacting the cells with fluorescence-labeled annexin V under the same condition as described in Example <3-1>, the binding of the cells was observed under a fluorescence microscope.
# Further, apoptotic A549 cells were pre-treated with annexin V, not labeled with fluorescence, at a concentration of 1000 μM. Then, after reacting the cells with fluorescence-labeled peptide under the same condition as described in Example <3-1>, the binding of the cells was observed under a fluorescence microscope.
# [7] = system: trail-treated apoptotic MDA-MB231 cells; test: Microscopic observation of binding of the peptide to apoptotic cells, MDA-MB231 (Example 9-1); assay type: cell-based; conditions: Alexa594-annexin V
# Description: as §1
# [8] = system: H460 tumor xenotransplanted in nude mice; test: Radionuclide (micro PET) imaging of targeting of apoptotic cells in tumor (Example 4-2); assay type: in vivo, mouse; conditions: 1 hour after injection
# Description: Nude mice in which tumor was xenotransplanted using H460 cells were prepared as in Example <2-1>. The mice were grouped into a doxorubicin (Sigma) treated group and untreated group. The treated group was treated with doxorubicin (10 mg/kg) 3 times, with an interval of 48 hours, a week prior to injection of the peptide. The peptide of the present invention (ApoPep-1), labeled with the radioactive isotope ^124I, was injected through the tail vein of each mouse under isoflurane anesthesia (treated group: 91 μCi; untreated group: 93 μCi). Further, ^18F-labeled FDG, which is frequently used for PET, was injected to the doxorubicin treated group and untreated group, at 300 μCi and 304 μCi, respectively. Radionuclide images were obtained using a micro PET instrument (Concorde MicroSystems) 5 hours after the injection of [^124I]ApoPep-1 and 1 hour after the injection of [^18F]FDG.
# [9] = system: A549 tumor xenotransplanted in nude mice; test: In vivo fluorescence imaging of targeting of apoptotic cells in tumor (Example 10); parameters: species or system mouse
# Description: Nude mice in which tumor was xenotransplanted using A549 cells were prepared as in Example <8-1>. The mice were grouped into a doxorubicin (Sigma) treated group (Dox+) and untreated group (Dox−). The treated group was treated with doxorubicin (5 mg/kg) one time, 12 hours prior to injection of the peptide. At the tail vein of each mouse, the polypeptide of the present invention or a control peptide, labeled with fluorescein or Cy7.5 near-infrared fluorescent dye, was injected at a final concentration of 50 μM, under isoflurane anesthesia. Following the injection, in vivo fluorescence images were obtained 0.5 hours and every hour, from 1 hour to 4 hours, after the injection, using an Optix exPlore instrument (ART). The images were standardized using the software provided with the instrument.
# [10] = system: A549 tumor xenotransplanted in nude mice; test: In vivo fluorescence imaging of targeting of apoptotic cells in tumor (Example 4-1); parameters: species or system mouse; conditions: +Dox (10 mg/kg, 3 times); fluorescein-labeled peptide 50 μM
# Description: Nude mice in which tumor was xenotransplanted using A549 cells were prepared as in Example <2-1>. The mice were grouped into a doxorubicin (Sigma) treated group (+Dox) and untreated group (−Dox). The treated group was treated with doxorubicin (10 mg/kg) 3 times, with an interval of 48 hours, a week prior to injection of the peptide. At the tail vein of each mouse, the peptide of the present invention or a control peptide, labeled with fluorescein, was injected at a final concentration of 50 μM, under isoflurane anesthesia. Following the injection, in vivo fluorescence images were obtained every hour, from 1 hour to 6 hours after the injection, using an Optix exPlore instrument (GE Healthcare). The images were standardized using the software provided with the instrument.
# Further, when the tumor grew considerably (1 cm or larger in diameter), the peptide of the present invention was injected at the same concentration as above, without doxorubicin treatment, and in vivo fluorescence images were obtained at every given time using an IVIS fluorescence imaging system (Chemipro).
# [11] = system: brain of stroke rat (middle cerebral artery occlusion/reperfusion); test: Molecular imaging of stroke (Example 6); assay type: in vivo; conditions: Cy7.5-labeled peptide 50 μM i.v.; one and three hours
# Description: A stroke model was established by occluding the left middle cerebral artery of a rat for 2 hours, followed by reperfusion. Two hours after the reperfusion, the peptide having an amino sequence represented by SEQ ID NO: 1 (ApoPep-1) and a control peptide, labeled with Cy7.5 NIR fluorescence, was intravenously injected at a final concentration of 50 μM to the stroke rat and a normal rat through the tail vein, under isoflurane anesthesia. One and three hours after the intravenous injection, NIR images of the head portion were obtained. Further, NIR fluorescence images of the brains of the rats of the 3 hour group were obtained.
# [12] = system: apoptotic cells in A549 tumor tissue xenotransplanted under the skin of nude mouse; test: Histological analysis of tumor targeting (Example 2); assay type: in vivo; conditions: fluorescein-labeled peptide, tail vein, 50 μM final, 2 hours circulation; cryosections
# Description: All animal experiments were performed in accordance with the guideline of the Institutional Animal Care and Use Committee. For tumor xenotransplantation, human lung cancer cells (A549, 1×10^7 cells) suspended in RMPI-1640 medium was subcutaneously injected at the right upper or lower limb of a 6-week-old male BALB/c nude mouse (Hyochang Science). Then, 3 weeks were given for the tumor to grow to a size of 0.5 to 1 cm. The A549 cell line used in the experiment was cultured in RMPI-1640 medium containing 10% fetal bovine serum (FBS) in which antibiotics (penicillin and streptomycin) were included. Subculturing was performed every 3 or 4 days.
# The peptides used in the present invention were fluorescein-attached form at the N-terminal. They were synthesized according to the standard Fmoc technique and then isolated through HPLC. The peptide synthesis was performed by an expertise company (Peptron).
# The peptide of the present invention (ApoPep-1) or a control peptide (amino acid sequence: NSSSVDK), labeled with fluorescein, was injected into the tail vein of a mouse under isoflurane anesthesia, to a final concentration of 50 μM, and 2 hours was given for circulation.
# For histological analysis, the mouse was anesthetized and the abdomen was cut open. After sequentially perfusing phosphate-buffered saline (PBS) and 4% paraformaldehyde through the heart, tumor tissues and organs were removed. Each tissue was cryosected and the peptide of the present invention was observed under a fluorescence microscope (Zeiss). Apoptosis in the tumor tissue was confirmed by TUNEL ([…] terminal deoxynucleotidyl transferase-mediated dUTP nick-end labeling) assay according to the instructions of the manufacturer (Chemicon). Fibrinogen staining was performed by immunohistochemistry using anti-fibrinogen antibody (Abcam) and secondary antibody labeled with Alexa 568, a red fluorescent reagent.
# [13] = etoposide 15 hours, fluorescein-annexin V room temperature 15 minutes, PI
substance,measurement,setting,value
annexin V: 36 kDa protein that binds to phosphatidylserine; used to detect apoptotic cells [reference compound],labeling of A549 cells not treated with etoposide,[1]; 10 μM peptide 4° C. 1 hour,no labeling was observed
same,labeling of etoposide-treated apoptotic A549 cells,"[1]; 50 μM etoposide 16 hours, 10 μM fluorescein-labeled peptide 4° C. 1 hour",labeling was observed
same,labeling of normal cells not treated with etoposide,[2]; Alexa594-annexin V,no labeling was observed
same,labeling of etoposide-treated apoptotic cells (fluorescence microscopy),"[2]; 50 μM etoposide, Alexa594-annexin V room temperature 15 minutes",labeling was observed
same,fluorescence of labeled annexin V after pre-treatment with unlabeled annexin V,[3],decreased significantly
same,percentage of the cells stained by annexin V,"[4]; etoposide 20 hours, fluorescein-annexin V room temperature 15 minutes",61%
same,"percentage of the cells stained by both annexin V and PI (fraction Q2, later stage of apoptosis)",[5]; [13],9.4%
same,"percentage of the cells stained only by annexin V (fraction Q4, early stage of apoptosis)",[5]; [13],64.3%
same,fluorescence of labeled annexin V after pre-treatment with unlabeled annexin V,[6],decreased significantly
same,labeling of trail-treated apoptotic MDA-MB231 cells,"[7]; 50 ng/ml trail 16 hours, 10 μM fluorescein-labeled peptide 4° C. 1 hour",labeling was observed
same,labeling of MDA-MB231 cells not treated with trail,[7]; 10 μM peptide 4° C. 1 hour,no labeling was observed
fluorodeoxyglucose [[^18F]FDG],"PET signal at the tumor site, doxorubicin treated group compared with untreated group",[8],weaker signal
"NSSSVDK [control peptide, reference compound]",ex vivo fluorescence signal from the kidney,"[9]; 4 hours after peptide injection, all the groups, renal clearance",strong
same,"fluorescence signal from the tumor, doxorubicin treated group","[9]; Dox+, Cy7.5-labeled peptide 50 μM",targeting was not observed; also recorded: weakly detected
same,"fluorescence signal from the tumor, doxorubicin treated group",[10],weakly detected or almost nonexistent
same,NIR fluorescence at the head portion of the stroke rat,[11],almost nonexistent
same,peptide fluorescence observed in the tumor tissue,[12],hardly observed
same,binding to apoptotic cells (FACS),"[4]; etoposide-treated A549, 10 μM, 4° C. or 37° C.",almost nonexistent or minimal
same,binding to apoptotic cells (FACS),"[5]; etoposide-treated A549 cells, 4° C. 1 hour",almost nonexistent
